Where a SMILES comes first, the peptide text is derived from it. [ ]: non-standard residue; d: D form. pGlu = O=C1CC[C@@H](C(=O)O)N1
Test system: haemopoiesis
Experiment: inhibitory effect on haemopoiesis in vivo
Conditions: time at which the inhibitory effect occurs
From the text: By contrast it is also possible to prepare peptides having a metabolically labile blocking group so that slow release of the unblocked peptide can be achieved in vivo. Thus according to a further aspect of the invention we provide compounds of formula [drawing 10] wherein R^a, R^b, R^c, R^e, R^f and n are as defined for formula I, R^12 is a metabolically labile group, for example a 2-pyridylthio group, and all amino acids have the chiral form stated for formula (I).

`NCCCC[C@H](NC(=O)[C@H](CS)NC(=O)[C@H](CC(=O)O)NC(=O)[C@H](CCC(=O)O)NC(=O)[C@@H]1CCC(=O)N1)C(=O)O` [Example 1, L-PYROGLUTAMYL-L-GLUTAMYL-L-ASPARTYL-L-CYSTEINYL-L-LYSINE] ([pGlu]EDCK-OH) was tested, and the “inhibitory effect on haemopoiesis, occurring after” value was 1 days.

Source: patent US5484770A, “Peptide compounds which inhibit the proliferation of epidermal or epithelial stem cells” (Hafslund Nycomed Bioreg AS, priority 1988, dated 1996)
